Laboratory results published in patent US20230159510A1, “NOVEL PRMT5 INHIBITORS” (AMGEN INC., priority 2020, published 2023).
Like-named read-outs stand apart in the source and are kept apart here.

Columns and labels:
HCT116 MTAP null cells = assay: HCT116 proliferation assay, MTAP null cells (CellTiter-Glo, 6 days); assay type: cell-based; details: 144 h, read-out: Protif_ HCT116-MTAP null IC50
Protocol: (§1) HCT116 MTAP null and WT cells were seeded in 96-well tissue culture plates in RPMI 1640 media + 10% fetal bovine serum. Plates were incubated overnight at 37° C. and 5% CO2. Cells were then treated with a 8- or 9-point serial dilution of compound, using a top concentration of 1 or 10 µM, 1:3 serial dilution steps and, a DMSO-only control. Cells were incubated in the presence of drug for 6 days. Effects on cell viability were measured with the CellTiter-Glo® Luminescent Cell Viability Assay (Promega) per manufacturer’s recommendation. Assay plates were read on an EnVision™ Multilabel Reader using the Ultra-Sensitive luminescence module.

HCT116 WT cells = assay: HCT116 proliferation assay, WT cells (CellTiter-Glo, 6 days); assay type: cell-based; details: Homo sapiens, HCT-116, 144 h, read-out: Prolif_HCT116-WT IC50
Protocol: as §1

| SMILES | IC50 (HCT116 MTAP null cells; HCT116-MTAP null) | IC50 (HCT116 WT cells) | IC50 (HCT116 MTAP null cells) |
| --- | --- | --- | --- |
| Cc1cc2cc(C(=O)N(Cc3ccc(C(F)(F)F)cn3)[C@@H](C)c3ccc(F)cn3)ccc2nc1N (single isomer, unassigned) [Example 485] | 734 nM | 4680 nM |  |
| Cc1cc2cc(C(=O)N(Cc3ncccc3F)[C@H]3COc4cc(C(F)(F)F)ccc43)ccc2nc1N (single isomer, unassigned) [Example 524] | 135 nM | 2350 nM |  |
| COc1ccc(CN(C[C@H](OC)C(F)(F)F)C(=O)c2ccc3nc(N)c(C)cc3c2)nn1 (single isomer, unassigned) [Example 774] | 139 nM | 5210 nM |  |
| Cc1cc2cc(C(=O)N(Cc3ccc(C(F)(F)F)cn3)[C@@H]3CC(F)(F)C[C@H]3O)ccc2nc1N (single isomer, unassigned) [Example 780] | 144 nM | 1800 nM |  |
| Cc1cc2cc(C(=O)N(Cc3ccc(C(F)(F)F)cn3)[C@@H]3CCOC[C@H]3F)ccc2nc1N (single isomer, unassigned) [Example 781] | 260 nM | 3400 nM |  |
| Cc1cc2cc(C(=O)N(Cc3ncccc3Cl)[C@H](C)c3ncccn3)c(F)cc2nc1N (single isomer, unassigned) [Example 784] | 261 nM | 4700 nM |  |
| COc1ccc(CN(C(=O)c2ccc3nc(N)c(C)cc3c2)[C@H](C)c2ncn(C)n2)nn1 (single isomer, unassigned) [Example 785] | 123 nM | 2600 nM |  |
| COc1ccc(CN(C(=O)c2ccc3nc(N)c(C)cc3c2)[C@H](C)c2ncccn2)cn1 (single isomer, unassigned) [Example 786] | 322 nM | > 10000 nM |  |
| COC[C@H](C1CC1)N(Cc1ccc(C(F)(F)F)cn1)C(=O)c1ccc2nc(N)c(C)cc2c1 (single isomer, unassigned) [Example 810] | 594 nM | 5400 nM |  |
| Cc1cc2cc(C(=O)N(Cc3ccc(C(F)(F)F)cn3)[C@H](C)c3cccc(C#N)n3)ccc2nc1N (single isomer, unassigned) [Example 811] | 422 nM | > 10000 nM |  |
| Cc1cc2cc(C(=O)N(Cc3ccc(C(F)(F)F)cn3)[C@@H]3CCOC[C@H]3O)ccc2nc1N (single isomer, unassigned) [Example 815] | 250 nM | 5150 nM |  |
| Cc1cc2cc(C(=O)N(Cc3ccc(C(F)(F)F)cn3)[C@H]3CCC[C@@H]3OC(F)F)ccc2nc1N (single isomer, unassigned) [Example 817] | 369 nM | 1310 nM |  |
| Cc1cc2cc(C(=O)N(Cc3ccc(C#N)nc3C)[C@H](C)c3ncccn3)ccc2nc1N (single isomer, unassigned) [Example 820] | 239 nM | 3550 nM |  |
| C[C@H](c1ncccn1)N(Cc1cc2c(cn1)OCCC2)C(=O)c1ccc2nc(N)c(I)cc2c1 (single isomer, unassigned) [Example 836] | 129 nM | > 10000 nM |  |
| CC(c1ncccc1F)N(Cc1ccc(N2CCOCC2)nn1)C(=O)c1cnc2nc(N)c(Br)cc2c1 (stereo in doubt) [Example 730, 7-amino-6-bromo-N-((1R)-1-(3-fluoro-2-pyridinyl)ethyl)-N-((6-(4-morpholinyl)-3-pyridazinyl)methyl)-1,8-naphthyridine-3-carboxamide] | 507 nM | 8460 nM |  |
| COc1ccc(CN(C(=O)c2ccc3nc(N)c(Br)cc3c2)C(C)c2ncn(C)n2)nn1 (stereo in doubt) [Example 755, (R)-2-amino-3-bromo-N-((6-methoxypyridazin-3-yl)methyl)-N-(1-(1-methyl-1H-1,2,4-triazol-3-yl)ethyl)quinoline-6-carboxamide] | 184 nM | > 10000 nM |  |
| Cc1cc2cc(C(=O)N(Cc3ccc(C(F)(F)F)cn3)CC(C)C)ccc2nc1N [Example 300, 2-amino-N-isobutyl-3-methyl-N-((5-(trifluoromethyl)pyridin-2-yl)methyl)quinoline-6-carboxamide] |  | 5300 nM | 317 nM |
| Cc1cc2cc(C(=O)N(Cc3ccc(C(F)(F)F)cn3)Cc3ncccn3)c(F)cc2nc1N [Example 319, 2-amino-7-fluoro-3-methyl-N-(2-pyrimidinylmethyl)-N-((5-(trifluoromethyl)-2-pyridinyl)methyl)-6-quinolinecarboxamide] | 168 nM | 4230 nM |  |

Continued by falling IC50 (HCT116 MTAP null cells; HCT116-MTAP null), values first:

| IC50 (HCT116 MTAP null cells; HCT116-MTAP null) | IC50 (HCT116 WT cells) | SMILES | IC50 (HCT116 MTAP null cells) |
| --- | --- | --- | --- |
| 98 nM | 2630 nM | Cc1cc2cc(C(=O)N(Cc3ccc(C(F)(F)F)nn3)[C@@H]3CCCn4ccnc43)ccc2nc1N (single isomer, unassigned) [Example 813] |  |
| 96 nM | 2080 nM | CC[C@H](c1ncccn1)N(Cc1ccc(C(F)(F)F)cn1)C(=O)c1cnc2nc(N)c(Br)cc2c1 (single isomer, unassigned) [Example 443] |  |
| 64 nM | 1590 nM | CC[C@H](c1ncccn1)N(Cc1ccc(C(F)(F)F)cn1)C(=O)c1cnc2nc(N)c(I)cc2c1 (single isomer, unassigned) [Example 788] |  |
| 62 nM | 1760 nM | Cc1cc2cc(C(=O)N(Cc3ccc(C(F)(F)F)cn3)[C@@H]3COCc4ncccc43)ccc2nc1N (single isomer, unassigned) [Example 814] |  |
| 59 nM | 2330 nM | Cc1cc2cc(C(=O)N(Cc3ccc(C(F)(F)F)cn3)[C@H](C)c3ccc(F)cn3)ccc2nc1N (single isomer, unassigned) [Example 484] |  |
| 59 nM | 1740 nM | C[C@H](c1cscn1)N(Cc1ccc(C(F)(F)F)nn1)C(=O)c1cnc2nc(N)c(Br)cc2c1 (single isomer, unassigned) [Example 787] |  |
| 50 nM | 1680 nM | COc1ccc(CN(C(=O)c2ccc3nc(N)c(C)cc3c2)[C@@H](c2ncccn2)C2CC2)nn1 (single isomer, unassigned) [Example 775] |  |
| 50 nM | 693 nM | Cc1cc2cc(C(=O)N(Cc3ccc(N4CCOCC4)nn3)C(C)c3ncccn3)c(F)cc2nc1N (stereo in doubt) [Example 731, 2-amino-7-fluoro-3-methyl-N-((6-(4-morpholinyl)-3-pyridazinyl)methyl)-N-((1R)-1-(2-pyrimidinyl)ethyl)-6-quinolinecarboxamide] |  |
| 43 nM | 1040 nM | Cc1cc2cc(C(=O)N(Cc3ccc(C(F)(F)F)cn3)[C@@H]3CCC[C@H]3C#N)ccc2nc1N (single isomer, unassigned) [Example 812] |  |
| 29 nM | 543 nM | Cc1cc2cc(C(=O)N(Cc3ccc(Cl)nn3)[C@H](C)c3ncccn3)ccc2nc1N (single isomer, unassigned) [Example 819] |  |
| 24 nM | 372 nM | Cc1cc2cc(C(=O)N(Cc3ccc(C(F)(F)F)cn3)[C@H](C)c3ncon3)ccc2nc1N (single isomer, unassigned) [Example 818] |  |
| 17 nM | 460 nM | CO[C@@H]1CCOC[C@H]1N(Cc1ccc(C(F)(F)F)cn1)C(=O)c1ccc2nc(N)c(C)cc2c1 (single isomer, unassigned) [Example 782] |  |
| 15 nM | 362 nM | COC[C@@H](C1CC1)N(Cc1ccc(C(F)(F)F)cn1)C(=O)c1ccc2nc(N)c(C)cc2c1 (single isomer, unassigned) [Example 809] |  |
